Where two headings read alike, the source gives them in different places.
Columns and labels:
[1] = molecular target: T1, follicle-stimulating hormone (FSH) receptor (Rattus norvegicus, UniProt P20395); assay: Rat granulosa EC50 FSH (Assay B); type: cell-based; conditions: rat granulosa cells
T1 construct: endogenous in cells; host or cells: rat granulosa cells
T1 sequence (P20395 18-692): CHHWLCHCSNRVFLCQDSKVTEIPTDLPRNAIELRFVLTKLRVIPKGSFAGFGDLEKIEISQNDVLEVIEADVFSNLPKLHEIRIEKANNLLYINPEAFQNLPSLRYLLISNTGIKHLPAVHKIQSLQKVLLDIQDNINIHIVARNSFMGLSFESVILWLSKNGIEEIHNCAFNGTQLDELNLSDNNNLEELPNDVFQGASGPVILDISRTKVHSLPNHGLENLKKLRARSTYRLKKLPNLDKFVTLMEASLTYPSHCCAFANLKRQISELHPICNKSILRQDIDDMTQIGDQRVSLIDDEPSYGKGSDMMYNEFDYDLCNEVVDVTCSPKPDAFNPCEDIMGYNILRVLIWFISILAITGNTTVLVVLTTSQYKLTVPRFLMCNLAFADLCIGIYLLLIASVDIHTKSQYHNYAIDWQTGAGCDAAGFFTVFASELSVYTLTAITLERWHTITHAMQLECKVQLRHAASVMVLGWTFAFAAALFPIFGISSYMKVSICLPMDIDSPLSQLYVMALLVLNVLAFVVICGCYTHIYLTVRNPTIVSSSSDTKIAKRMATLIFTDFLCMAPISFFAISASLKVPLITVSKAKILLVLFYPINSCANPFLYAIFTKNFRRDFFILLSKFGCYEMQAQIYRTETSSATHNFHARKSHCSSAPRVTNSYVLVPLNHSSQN
Experimental: Example 11: Rat Granulosa EC50 FSH (Assay B)
The assay was performed pursuant to the teaching of Yanofsky et al. (2006) Allosteric activation of the follicle-stimulating hormone (FSH) receptor by selective, nonpeptide agonists. JBC 281(19): 13226-13233, which is incorporated by reference in the disclosure of the invention.

[2] = molecular target: T2, FSHR (Homo sapiens, UniProt P23945); assay: EC50 of cyclic AMP production in CHO FSHR cells + EC20 FSH (Assay A); type: cell-based
T2 construct: expressed in transfected cells; host or cells: CHO (Cho-FSHR-LUC-1-1-43)
T2 sequence (P23945 18-695): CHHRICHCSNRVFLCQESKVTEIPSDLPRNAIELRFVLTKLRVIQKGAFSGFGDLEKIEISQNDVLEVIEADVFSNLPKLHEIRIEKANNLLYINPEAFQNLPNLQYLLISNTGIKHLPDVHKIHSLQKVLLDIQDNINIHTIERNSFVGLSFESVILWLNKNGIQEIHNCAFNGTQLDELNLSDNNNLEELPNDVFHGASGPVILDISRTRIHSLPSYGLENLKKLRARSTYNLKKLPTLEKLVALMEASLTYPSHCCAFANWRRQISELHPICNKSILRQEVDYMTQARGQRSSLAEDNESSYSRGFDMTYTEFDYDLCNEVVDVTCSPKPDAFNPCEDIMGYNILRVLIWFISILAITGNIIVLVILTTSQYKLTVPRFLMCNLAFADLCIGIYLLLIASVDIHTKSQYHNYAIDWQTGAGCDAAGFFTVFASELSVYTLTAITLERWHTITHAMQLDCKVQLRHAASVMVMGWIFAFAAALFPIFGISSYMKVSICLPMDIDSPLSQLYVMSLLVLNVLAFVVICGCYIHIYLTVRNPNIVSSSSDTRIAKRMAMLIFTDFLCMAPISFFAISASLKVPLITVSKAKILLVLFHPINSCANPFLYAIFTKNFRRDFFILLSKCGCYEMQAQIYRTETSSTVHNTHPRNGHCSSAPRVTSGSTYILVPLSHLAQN
T2 sequence (P01215 25-116 partner): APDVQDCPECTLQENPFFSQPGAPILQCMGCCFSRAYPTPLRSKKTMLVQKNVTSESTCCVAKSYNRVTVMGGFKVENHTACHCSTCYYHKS
T2 sequence (P01225 19-129 partner): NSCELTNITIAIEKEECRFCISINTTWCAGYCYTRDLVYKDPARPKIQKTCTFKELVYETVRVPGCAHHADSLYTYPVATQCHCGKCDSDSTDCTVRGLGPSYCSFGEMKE
Procedure, shortened: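 cAMP HTRF ratio (665/620 nm) read after 1 h, 37 °C exposure of CHO-FSHR cells to compound in presence of EC20 FSH ([…]) and IBMX 200 μM. Responses given relative to FSH standard maximum; EC50 derived.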

[3] = CHO FSHR cells + EC20 FSH, Table 1, read-out: Assay A EC50 of cyclic AMP production
[4] = CHO FSHR cells + EC20 FSH, Table 2, read-out: Assay A EC50 of cyclic AMP production

Row | Compound | EC50 ([1]; Table 1) [µM] | EC50 [2, 3] [µM] | other results
1 | Cc1ccccc1N1CCN(c2ccc(C(=O)NCCCN3CCCC3=O)cc2NC(=O)c2ccco2)CC1 [Compound 2] | 1 to 10 | < 0.1 | –
2 | O=C(NCC1CCCO1)c1ccc(N2CCN(Cc3ccccc3)CC2)c(NC(=O)c2ccccc2Cl)c1 (centres unmarked) [Compound 3] | – | 0.1 to 1 | Assay B % at 5 μM ([1]; Table 1): 10%
3 | Cc1ccccc1N1CCN(c2ccc(C(=O)NCCc3c[nH]cn3)cc2NC(=O)c2ccco2)CC1 [Compound 15] | 0.1 to 1 | 0.1 to 1 | –
4 | Cc1ccccc1N1CCN(c2ccc(C(=O)NCCCN3CCCC3=O)cc2NC(=O)c2ccc(F)cc2)CC1 [Compound 31] | 0.1 to 1 | 0.1 to 1 | –
5 | Cc1ccc(C(=O)Nc2cc(C(=O)NCCCN3CCCC3=O)ccc2N2CCN(c3ccccc3C)CC2)cc1 [Compound 35] | 1 to 10 | 0.1 to 1 | –
6 | Cc1ccccc1N1CCN(c2ccc(C(=O)NCCCN3CCCC3=O)cc2NS(=O)(=O)c2cccc3cccnc23)CC1 [Compound 45] | 0.1 to 1 | 0.1 to 1 | –
7 | Cc1ccccc1N1CCN(c2ccc(C(=O)NC3CCN(S(C)(=O)=O)CC3)cc2NC(=O)c2ccco2)CC1 [Compound 58, Furan-2-carboxylic acid [5-(1-methanesulfonyl-piperidin-4-ylcarbamoyl)-2-(4-o-tolyl-piperazin-1-yl)-phenyl]-amide] | – | 0.1 to 1 | Assay B % at 5 μM ([1]; Table 1): 27%
8 | Cc1ccccc1N1CCN(c2ccc(C(=O)NCCCN3CCCC3=O)cc2NC(=O)c2cscn2)CC1 [Compound 73] | 1 to 10 | 0.1 to 1 | –
9 | Cc1nc(C(=O)Nc2cc(C(=O)NCCCN3CCCC3=O)ccc2N2CCN(c3ccccc3C)CC2)cs1 [Compound 74] | 0.1 to 1 | 0.1 to 1 | –
10 | CCc1nc(C(=O)Nc2cc(C(=O)NCCCN3CCCC3=O)ccc2N2CCN(c3ccccc3C)CC2)co1 [Compound 79] | 0.1 to 1 | 0.1 to 1 | –
11 | Cc1ccccc1N1CCN(c2ccc(C(=O)NCCCN3CCCC3=O)cc2NC(=O)c2ccccc2F)CC1 [Compound 85] | 1 to 10 | 0.1 to 1 | –
12 | Cc1ccccc1N1CCN(c2ccc(C(=O)NCCCN3CCCC3=O)cc2NC(=O)c2coc(C3CC3)n2)CC1 [Compound 105] | 0.1 to 1 | < 0.1 | –
13 | Cc1ccccc1N1CCN(c2ccc(C(=O)NCCCN3CCCC3=O)cc2NC(=O)c2ccc(F)cn2)CC1 [Compound 128] | 0.1 to 1 | 0.1 to 1 | –
14 | Cc1ccccc1N1CCN(c2ccc(C(=O)NCCCN3CCCC3=O)cc2NC(=O)c2ccc(Cl)o2)CC1 [Compound 135] | 0.1 to 1 | 0.1 to 1 | –
15 | Cc1ccccc1N1CCN(c2ccc(C(=O)NCCCN3CCCC3=O)cc2NC(=O)c2ccc(Br)o2)CC1 [Compound 143, 5-Bromo-furan-2-carboxylic acid [5-[3-(2-oxo-pyrrolidin-1-yl)-propylcarbamoyl]-2-(4-o-tolyl-piperazin-1-yl)-phenyl]-amide] | 0.1 to 1 | – | EC50 [2]: 0.1 to 1 µM
16 | Cc1ccccc1N1CCN(c2ccc(C(=O)NCCCN3C(=O)CCC3=O)cc2NC(=O)c2ccco2)CC1 [Compound 147] | 0.1 to 1 | 0.1 to 1 | –
17 | Cc1ccccc1N1CCN(c2ccc(C(=O)NCCCN3C(=O)CSC3=O)cc2NC(=O)c2ccco2)CC1 [Compound 150] | 0.1 to 1 | 0.1 to 1 | –
18 | Cc1ccccc1N1CCN(c2ccc(C(=O)NCCCc3cn[nH]c3)cc2NC(=O)c2ccco2)CC1 [Compound 152] | < 0.1 | 0.1 to 1 | –
19 | Cc1ccccc1N1CCN(c2ccc(C(=O)NCCCN3CCOC3=O)cc2NC(=O)c2ccco2)CC1 [Compound 155] | 1 to 10 | 0.1 to 1 | –
20 | Cc1ccccc1N1CCN(c2ccc(C(=O)NCCCC3CCOC3)cc2NC(=O)c2ccco2)CC1 (centres unmarked) [Compound 158] | 0.1 to 1 | – | –

Row | Compound | EC50 ([1]; Table 1) [µM] | EC50 [2, 3] [µM] | other results
21 | C#Cc1ccc(C(=O)Nc2cc(C(=O)NCCCN3CCCC3=O)ccc2N2CCN(c3ccccc3C)CC2)o1 [Compound 176, 5-ethynyl-furan-2-carboxylic acid [5-[3-(2-oxo-pyrrolidin-1-yl)-propylcarbamoyl]-2-(4-o-tolyl-piperazin-1-yl)-phenyl]-amide] | 1 to 10 | 0.1 to 1 | –
22 | Cc1ccccc1N1CCN(c2ccc(C(=O)NCCc3cccc(C(N)=O)c3)cc2NC(=O)c2ccco2)CC1 [Compound 188] | 0.1 to 1 | 0.1 to 1 | –
23 | Cc1ccccc1N1CCN(c2ccc(C(=O)NCc3cccc(C(N)=O)c3)cc2NC(=O)c2ccco2)CC1 [Compound 189] | 0.1 to 1 | < 0.1 | –
24 | Cc1csc(C(=O)Nc2cc(C(=O)NCCCN3CCCC3=O)ccc2N2CCN(c3ccccc3C)CC2)n1 [Compound 203] | 0.1 to 1 | 0.1 to 1 | –
25 | Cc1ccccc1N1CCN(c2ccc(C(=O)NCCCN3CCCC3=O)cc2NC(=O)c2coc(Cl)n2)CC1 [Compound 207] | 0.1 to 1 | 0.1 to 1 | –
26 | Cc1ccccc1N1CCN(c2ccc(C(=O)N3CCC4(CCOC4)CC3)cc2NC(=O)c2ccco2)CC1 [Compound 224] | 1 to 10 | – | activation at 5 µM ([2]; 1 h, 5 μM, effect relative to maximum response of the FSH standard, Table 1): 10%
27 | Cc1ccc(C(=O)Nc2cc(C(=O)NCCCCO)ccc2N2CCN(c3ccccc3C)CC2)o1 [Compound 241, 5-Methyl-furan-2-carboxylic acid [5-(4-hydroxy-butylcarbamoyl)-2-(4-o-tolyl-piperazin-1-yl)-phenyl]-amide] | – | 0.1 to 1 | Assay B % at 5 μM ([1]; Table 1): 177%
28 | Cc1ccc(C(=O)Nc2cc(C(=O)NCCCN3CCCC3=O)ccc2N2CCN(c3ccccc3C(F)(F)F)CC2)o1 [Compound 246] | 1 to 10 | 1 to 10 | –
29 | Cc1ccccc1N1CCN(c2ccc(C(=O)NCc3cccc(C(N)=O)c3)cc2NC(=O)c2coc(C3CC3)n2)CC1 [Compound 304] | – | – | Assay B % at 1.25 μM ([1]; Table 2): 79%; EC50 [2, 4]: < 0.1 µM
30 | Cc1ccccc1N1CCN(c2ccc(C(=O)NCCc3cccc(C(N)=O)c3)cc2NC(=O)c2coc(C3CC3)n2)CC1 [Compound 307] | – | – | EC50 ([1]; Table 2): 1 to 10 µM; EC50 [2, 4]: 0.1 to 1 µM
31 | Cc1ccccc1N1CCN(c2ccc(C(=O)N[C@H]3O[C@@H](CO)[C@H](O)[C@@H]3O)cc2NC(=O)c2coc(C3CC3)n2)CC1 [Compound 311] | – | – | EC50 ([1]; Table 2): 0.1 to 1 µM; EC50 [2, 4]: 0.1 to 1 µM
32 | Cc1ccccc1N1CCN(c2ccc(C(=O)NCc3cccc(CN(C)C)c3)cc2NC(=O)c2ccco2)CC1 [Compound 320] | – | – | EC50 ([1]; Table 2): 0.1 to 1 µM; EC50 [2, 4]: 0.1 to 1 µM
33 | Cc1ccc(C(=O)Nc2cc(C(=O)NCCCN3CCOC3=O)ccc2N2CCN(c3ccccc3C)CC2)o1 [Compound 322] | – | – | EC50 ([1]; Table 2): 1 to 10 µM; EC50 [2, 4]: 0.1 to 1 µM
34 | Cc1ccccc1N1CCN(c2ccc(C(=O)NCCS(=O)(=O)N3CCCC3)cc2NC(=O)c2coc(C3CC3)n2)CC1 [Compound 344] | – | – | EC50 ([1]; Table 2): 0.1 to 1 µM; EC50 [2, 4]: 1 to 10 µM
35 | Cc1ncc(C(=O)Nc2cc(C(=O)NCCCN3CCCC3=O)ccc2N2CCN(c3ccccc3C)CC2)o1 [Compound 349] | – | – | EC50 ([1]; Table 2): 1 to 10 µM; EC50 [2, 4]: 0.1 to 1 µM
36 | Cc1ccccc1N1CCN(c2ccc(C(=O)NCCCN3C(=O)[C@H]4C[C@@H]3C(O)C4O)cc2NC(=O)c2coc(C3CC3)n2)CC1 (some centres unmarked) [Compound 365] | – | – | EC50 ([1]; Table 2): < 0.1 µM; EC50 [2, 4]: 0.1 to 1 µM
37 | Cc1ccccc1N1CCN(c2ccc(C(=O)NCCCc3nn[nH]n3)cc2NC(=O)c2coc(C3CC3)n2)CC1 [Compound 392] | – | – | EC50 ([1]; Table 2): 0.1 to 1 µM; EC50 [2, 4]: < 0.1 µM
38 | Cc1nc(C)n(CCCNC(=O)c2ccc(N3CCN(c4ccccc4C)CC3)c(NC(=O)c3coc(C4CC4)n3)c2)n1 [Compound 394] | – | – | Assay B % at 1.25 μM ([1]; Table 2): 50%; EC50 [2, 4]: 0.1 to 1 µM
39 | Cc1ccc(CNc2cc(C(=O)NCCCN3CCCC3=O)ccc2N2CCN(c3ccccc3C)CC2)o1 [Compound 410] | – | – | EC50 ([1]; Table 2): 1 to 10 µM; EC50 [2, 4]: 0.1 to 1 µM

Source: patent US9938262B2, “Benzamides” (Merck Patent GmbH, priority 2011, dated 2018)
